Assay [1] concerns gastric injuries induced by acidic alcohol. In words: Assay of gastric injuries induced by acidic alcohol. The format is in vivo. The following applies: female rats; for ED50: Rattus norvegicus, po, pretreatment 30 min, length of haemorrhagic lesions. As to the method: 1) Assay of gastric injuries induced by acidic alcohol
Female rats weighing about 120 to 150 g fasted for 24 hours were used in this test. Test compounds suspended with Tween 80 were given orally to the animals through an intragastric tube. After a certain period (pretreatmenttime) acidic alcohol was given through the intragastric tube at a dose or 0.5 ml per 100 g of body weight. The animals were sacrificed after 1 hour, their stomachs were removed and incised along the great curve. The length of the reddish-brown strips (haemorrhagic lesions) was measured and the mean total length per stomach was calculated. The biological activity of the test compounds was given and compared to that of the control group. the results are shown in Tables 1 and 2 below.

In assay [2] the test system is gastric acid secretion. The experiment in a line: Assay of the inhibition of gastric acid secretion by using pylorus ligature. The format is in vivo. To be noted: female Wistar rats, 4 hours. On the procedure:
2) Assay of the inhibition of gastric acid secretion by using pylorus ligature
[Shay et al., Gastroenterology, 5, 43-61 (1945)]
Before ligating the pylorus, the test compounds suspended with Tween were given orally at a volume of 0.5 ml per […] of body weight to female Wistar rats fasted previously for 20 hours. The animals were sacrificed 4 hours after the operation, and the amount of the acid in the stomach was measured by titration with 0.01N sodium hydroxide solution in the presence of phenolphthalein indicator. The pH value of the content of the stomach was measured by using a pH-meter (Radelkis, Type OP-211/1).

What is called ED50 is the midpoint of the dose-response relation. The % Inhibition is the percentage by which the read-out fell short of the control.

For `CCOC(=O)C[C@@H](NC(=O)/C=C/[S+]([O-])c1ccccc1)C(=O)OCC` (stereo partly drawn) [A, Diethyl N-[3-phenylsulfinyl-2(E)-propenoyl]-(R)-aspartate], the ED50 in assay [1] stood at 2.1 mg/kg. For the same compound, the “% Inhibition in the amount of the acid at a dose of 25 mg/kg p.o. (pretreatment: 30 min)” value in assay [2] is 30%.
Regarding `CCOC(=O)C[C@@H](NC(=O)/C=C/S(=O)(=O)c1ccccc1)C(=O)OCC` [B, Diethyl N-[3-phenylsulfonyl-2(E)-propenoyl]-(R)-aspartate], in assay [1], the ED50 was found to be 3.5 mg/kg.
Turning to `O=C(/C=C/S(=O)(=O)c1ccccc1)N1CCN(c2ccccc2)CC1` [C, 1-[3-Phenylsulfonyl-2(E)-propenoyl]-4-phenyl-piperazine], in assay [2], the “% Inhibition in the amount of the acid at a dose of 25 mg/kg p.o. (pretreatment: 30 min)” value came out at 20%.
Take `COC(=O)[C@H](CCSC)NC(=O)/C=C/S(=O)(=O)c1ccccc1` [D, Methyl 2(S)-[3-phenylsulfonyl-2(E)-propenoylamino]-4-methylthiobutyrate]: the median effective dose (ED50) in assay [1] came to 3.5 mg/kg.
For `CCOC(=O)C[C@@H](NC(=O)/C=C/Sc1ccccc1)C(=O)OCC` [E, Diethyl N-[3-phenylthio-2(E)-propenoyl]-(R)-aspartate], the “% Inhibition at a dose of 10 mg/kg p.o. (pretreatment: 30 min)” value in assay [1] was 20%. The “% Inhibition in the amount of the acid at a dose of 25 mg/kg p.o. (pretreatment: 30 min)” value in assay [2] was determined as 20%.
Turning to `CCOC(=O)C[C@H](NC(=O)/C=C/Sc1ccccc1)C(=O)OCC` [F, Diethyl N-[3-phenylthio-2(E)-propenoyl]-(S)-aspartate], the “% Inhibition at a dose of 10 mg/kg p.o. (pretreatment: 30 min)” value in assay [1] was 20%. Further, the “% Inhibition in the amount of the acid at a dose of 25 mg/kg p.o. (pretreatment: 30 min)” value in assay [2] turned out to be 20%.
On to `NC(=O)[C@@H]1CCCN1C(=O)/C=C/S(=O)(=O)c1ccccc1` [G, 1-[3-Phenylsulfonyl-2(E)-propenoyl]-2(S)-carbamoylpyrrolidine], for which the ED50 in assay [1] was found to be 4.5 mg/kg. Further, in assay [2], the “% Inhibition in the amount of the acid at a dose of 25 mg/kg p.o. (pretreatment: 30 min)” value was 30%.
For the compound `CCOC(=O)CNC(=O)/C=C/S(=O)(=O)c1ccccc1` [H, Ethyl N-[3-phenylsulfonyl-2(E)-propenoyl]glycinate], the ED50 in assay [1] was 1.6 mg/kg. Moreover, the “% Inhibition in the amount of the acid at a dose of 25 mg/kg p.o. (pretreatment: 30 min)” value in assay [2] was 30%.
In the same order, the values of `CCOC(=O)[C@H](C)NC(=O)/C=C/S(=O)(=O)c1ccccc1` [I, Ethyl N-[3-phenylsulfonyl-2(E)-propenoyl]-(S)alanate] are 2.2 mg/kg and 20%.
Take `COC(=O)[C@@H]1CSCN1C(=O)/C=C\Sc1ccccc1` [J, Methyl N-[3-phenylthio-2(Z)-propenoyl]-(R)-thiazolidine-4-carboxylate]: the “% Inhibition at a dose of 10 mg/kg p.o. (pretreatment: 30 min)” value in assay [1] is given as 20%.
Regarding `O=C(O)C[C@@H](NC(=O)/C=C/S(=O)(=O)c1ccccc1)C(=O)O` [K, Magnesium N-[3-phenylsulfonyl-2(E)-propenoyl]-(R)aspartate.4H2 O], the “% Inhibition in the amount of the acid at a dose of 25 mg/kg p.o. (pretreatment: 30 min)” value in assay [2] is 30%.
